Structures can show the parent of a compound that is named as a salt.

The first test relates to α-SMA. Put plainly: in vitro α-SMA expression inhibition (immunostaining, confocal microscopy) in TGF-β1-treated MRC-5 cells. The settings on record: Homo sapiens, TGF-β1 (5 ng/mL), 72 hours, standardized using GAPDH. Format: cell-based, human. The source says: When scars are generated in tissue, fibroblasts undergo fibroblast-to-myofibroblast transition (FMT), and the resulting myofibroblasts produce the extracellular matrix, leading to tissue fibrosis. α-SMA is a representative biomarker of myofibroblasts, and its expression greatly increases as FMT progresses. Accordingly, through the evaluation of α-SMA expression inhibitory activity, the efficacy of the compounds in inhibiting fibrosis may be evaluated. Therefore, the inhibitory activity of the compounds of the present invention on α-SMA expression was evaluated in cells. To more accurately evaluate the inhibition of α-SMA expression, IC50 values were determined by treating human lung-derived fibroblasts (MRC-5 cells) with the compounds of the present invention in a concentration-dependent manner.
Specifically, 2 hours after the MRC-5 cells were treated with DMSO or compounds dissolved in serum containing 0.5% fetal bovine serum (FBS) in a concentration-dependent manner, fibrosis was induced by treatment with TGF-β1 (5 ng/mL). After 72 hours, the cells were immobilized with a 2% paraformaldehyde solution for 10 minutes, and to impart cell membrane permeability, a 0.1% Triton X-100 solution was treated for 10 minutes, and a 1% bovine serum albumin (BSA) solution was treated to prevent non-specific binding. For immunostaining, anti-GAPDH (BIO-RAD) was first treated as a primary antibody, and Alexa Fluor™ Plus 555 for GAPDH labeling was used as a secondary antibody. For α-SMA staining, an FITC fluorescence-tagged α-SMA primary antibody was used, and thus the increase and decrease in α-SMA caused by the compounds were evaluated. The immunohistochemical experimental results were confirmed with a STELLARIS 5 confocal microscope (Leica), and FITC-stained α-SMA was standardized using GAPDH labeled with Alexa FluorTM Plus 555 for quantification. The IC50 of the compounds according to the present invention was calculated through statistical analysis (linear mixed effects model). […]
`O=C(NC[C@H]1CCCN1)N1CCN(Cc2ccccn2)c2ccccc21` [Compound 52, (R)-4-(pyridin-2-ylmethyl)-N-(pyrrolidin-2-ylmethyl)-3,4-dihydroquinoxaline-1(2H)-carboxamide] showed a half-inhibitory concentration (IC50) of 1 to 10 µM.
Same read-out and setting: under `O=C(NC1CCNCC1)N1CCN(Cc2ccccn2)c2ccccc21` [Compound 53, N-(piperidin-4-yl)-4-(pyridin-2-ylmethyl)-3,4-dihydroquinoxaline-1(2H)-carboxamide] stands 1 to 10 µM.
In turn, `O=C(NC1COC1)N1CCN(Cc2ccccn2)c2ccccc21` [Compound 54, N-(oxetan-3-yl)-4-(pyridin-2-ylmethyl)-3,4-dihydroquinoxaline-1(2H)-carboxamide] showed a 50% inhibitory concentration (IC50) of less than 1 µM.
`CC1(NC(=O)N2CCN(Cc3ccccn3)c3ccccc32)COC1` [Compound 55, N-(3-Methyloxetan-3-yl)-4-(pyridin-2-ylmethyl)-3,4-dihydroquinoxaline-1(2H)-carboxamide] yielded an IC50 of less than 1 µM.
On the same count and under the same terms, under `O=C(NCC1COC1)N1CCN(Cc2ccccn2)c2ccccc21` [Compound 56, N-(oxetan-3-ylmethyl)-4-(pyridin-2-ylmethyl)-3,4-dihydroquinoxaline-1(2H)-carboxamide] stands 10 to 30 µM; under `CC1(CNC(=O)N2CCN(Cc3ccccn3)c3ccccc32)COC1` [Compound 57, N-((3-methyloxetan-3-yl)methyl)-4-(pyridin-2-ylmethyl)-3,4-dihydroquinoxaline-1(2H)-carboxamide], no more than 30 µM.
Same read-out and setting: the same measure for `O=C(NCC1CCOC1)N1CCN(Cc2ccccn2)c2ccccc21` (stereo not drawn) [Compound 58, 4-(pyridin-2-ylmethyl)-N-((tetrahydrofuran-3-yl)methyl)-3,4-dihydroquinoxaline-1(2H)-carboxamide]: less than 1 µM; for `O=C(NC[C@@H]1CCOC1)N1CCN(Cc2ccccn2)c2ccccc21` [Compound 59, (S)-4-(pyridin-2-ylmethyl)-N-((tetrahydrofuran-3-yl)methyl)-3,4-dihydroquinoxaline-1(2H)-carboxamide]: less than 1 µM; for `O=C(NC[C@H]1CCOC1)N1CCN(Cc2ccccn2)c2ccccc21` [Compound 60, (R)-4-(pyridin-2-ylmethyl)-N-((tetrahydrofuran-3-yl)methyl)-3,4-dihydroquinoxaline-1(2H)-carboxamide]: 10 to 30 µM.
`CN1CC[C@@H](COC(=O)N2CCN(Cc3ccccn3)c3ccccc32)C1` [Compound 64, (R)-(1-methylpyrrolidin-3-yl)methyl-4-(pyridin-2-ylmethyl)-3,4-dihydroquinoxaline-1(2H)-carboxylate] came in with a half-inhibitory concentration (IC50) of less than 1 µM.
The same measure, in the same setting: under `CN1CCC(COC(=O)N2CCN(Cc3ccccn3)c3ccccc32)CC1` [Compound 65, (1-methylpiperidin-4-yl)methyl-4-(pyridin-2-ylmethyl)-3,4-dihydroquinoxaline-1(2H)-carboxylate] stands 10 to 30 µM; under `O=C(NCC1CCNCC1)N1CCN(Cc2ccc(F)cn2)c2ccccc21` [Compound 66, 4-((5-fluoropyridine-2-yl)methyl)-N-(piperidin-4-ylmethyl)-3,4-dihydroquinoxaline-1(2H)-carboxamide oxalic acid salt], less than 1 µM.
The same measure, in the same setting: the same measure for `CN1CCC(CNC(=O)N2CCN(Cc3ccc(F)cn3)c3ccccc32)CC1` [Compound 67, 4-((5-fluoropyridin-2-yl)methyl)-N-((1-methylpiperidin-4-yl)methyl)-3,4-dihydroquinoxaline-1(2H)-carboxamide]: no more than 30 µM; for `O=C(NCC1CCNCC1)N1CCN(Cc2ncccc2F)c2ccccc21` [Compound 68, 4-((3-fluoropyridin-2-yl)methyl)-N-(piperidin-4-ylmethyl)-3,4-dihydroquinoxaline-1(2H)-carboxamide]: no more than 30 µM; for `CN1CCC(CNC(=O)N2CCN(Cc3ncccc3F)c3ccccc32)CC1` [Compound 69, 4-((3-fluoropyridin-2-yl)methyl)-N-((1-methylpiperidin-4-yl)methyl)-3,4-dihydroquinoxaline-1(2H)-carboxamide]: 1 to 10 µM.
Same read-out and setting: the same measure for `CN1CCN(C(=O)N2CCN(C3CCCCC3)c3ccccc32)CC1` [Compound 70, (4-cyclohexyl-3,4-dihydroquinoxaline-1(2H)-yl)(4-methylpiperazin-1-yl)methanone]: 1 to 10 µM; for `O=C(N1CCCCC1)N1CCN(C2CCCCC2)c2ccccc21` [Compound 71]: 1 to 10 µM.
The molecule `CC(C)CC(=O)N1CCN(C(=O)NCC2CCNCC2)c2ccccc21` [Compound 77, 4-(3-Methylbutanoyl)-N-(piperidin-4-ylmethyl)-3,4-dihydroquinoxaline-1(2H)-carboxamide] gave a 50% inhibitory concentration (IC50) of no more than 30 µM.
Same read-out and setting: the same measure for `CC(C)(C)CC(=O)N1CCN(C(=O)N2CCNCC2)c2ccccc21` [Compound 78, 3,3-dimethyl-1-(4-(piperazine-1-carbonyl)-3,4-dihydroquinoxaline-1(2H)-yl)butan-1-one]: no more than 30 µM.
Still for that read-out and setting: under `CC(C)(C)CC(=O)N1CCN(C(=O)NCC2CCNCC2)c2ccccc21` [Compound 79, 4-(3,3-dimethylbutanoyl)-N-(piperidin-4-ylmethyl)-3,4-dihydroquinoxaline-1(2H)-carboxamide] stands no more than 30 µM.

The same test, now with this note: TGF-β1 (5 ng/mL), 72 hours, standardized using GAPDH.
In turn, “(S)-N-(1-isobutylpyrrolidin-3-yl)-4-(pyrazin-2-ylmethyl)-3,4-dihydroquinoxaline-1(2H)-carboxamide [Compound 44]” came in with an IC50 of no more than 30 µM.

As a reminder, the IC50 is the point on the concentration scale where inhibition reaches its midpoint. Read a low IC50 as inhibition by little substance.

The values above are taken from EP4700021A1, “NOVEL COMPOUND AND PHARMACEUTICAL COMPOSITION COMPRISING SAME AS ACTIVE INGREDIENT” (Sapiensbio Inc., priority 2023, dated 2025).
